Experimental data reported in US20200222474A1, “COMPOSITIONS AND METHODS FOR INCREASING PHYTOCHEMICAL BIOAVAILABLITY AND BIOACTIVITY” (North Carolina State University, priority 2017, published 2020).

What was measured:
[1] = tested on: L. acidophilus NCFM; experiment: Growth of L. acidophilus NCFM on plant glycosides as single carbon source (OD600); format: cell-based, Lactobacillus acidophilus; details: for Growth (OD600 max class) of L. acidophilus NCFM: SDM + 1% (w/v) carbohydrate (0.5% esculin), 37° C., 30 hours, corrected to medium without carbohydrate; for OD600 max: single carbon source, 200 μl cultures, 96 microtitre plates, corrected for medium without carbon source
Procedure: For initial growth and gene expression studies, L. acidophilus NCFM was propagated three times in semi-defined medium (SDM) supplemented with either 1% or 0,5% (w/v) of the plant glycoside or carbohydrate (Table 1). For the RNA-seq analysis, cells were harvested by centrifugation (3,220×10 min, 25° C.) in the mid-exponential phase (OD600=0.6-0.8) and stored at −80° C. for subsequent RNA isolation. For the mass spectrometry metabolite analyses, 200 μt samples were taken at 0, 3, 6, 9, 12, and 24 hours of growth; cells were removed by centrifugation; and supernatants were stored at −80° C. for further analysis.
(§1) Phenotypic growth assays were performed using 1% (v/v) overnight cultures of L. acidophilus strains (Table 2) and other Lactobacillus species (Table 3) grown on SDM supplemented with 1% (w/v) glucose to inoculate 200 μL of SDM supplemented with 1% (w/v) of the examined carbohydrate (0.5% in the case of esculin) in 96-well microplate wells (Corning Costar, Corning, N.Y., USA) in duplicate or triplicate wells, respectively. The microplates were sealed with clear adhesive film, incubated at 37° C. in a Fluostar Optima microplate reader (BMG Labtech, Cary, N.C., USA), and the cell optical density (OD600) was monitored for 30 hours.
The growth of L. acidophilus NCFM was evaluated on twelve chemically diverse, nutritionally relevant and/or therapeutically active PGs 1; Table 1). FIG. 1A provides the structures and common sources of plant glycoside substrates described herein. The compounds that support growth of Lactobacillus acidophilus are in green. RI: β-D-Glcp; R2: Gentiobioside (β-D-Glcp-(1,6)-D-Glcp); R3: Rutinoside (α-L-Rhaf-(1,6)-D-Glcp). The graph in FIG. 1B depicts plant glycoside utilization analyzed by mass spectrometry and the growth as the maximum OD600. Due to the low solubility of polydatin, OD600 cannot be used as a growth metric and utilization of this compound is confirmed by the production of lactate as well as a high utilization level based on the metabolite analysis.

[2] = tested on: L. acidophilus LA-1; experiment: Phenotypic growth assay (OD600); format: cell-based; details: SDM + 1% (w/v) carbohydrate (0.5% esculin), 37° C., 30 hours; corrected to medium without carbohydrate
Procedure: as §1

[3] = tested on: L. amyloverus ATCC 33620, DSM 20531; experiment: Phenotypic growth assay (OD600); format: cell-based; details: SDM + 1% (w/v) carbohydrate (0.5% esculin), 37° C., 30 hours; corrected to medium without carbohydrate
Procedure: as §1

[4] = tested on: L. animalis DSM 20602; experiment: Phenotypic growth assay (OD600); format: cell-based; details: SDM + 1% (w/v) carbohydrate (0.5% esculin), 37° C., 30 hours; corrected to medium without carbohydrate
Procedure: as §1

[5] = tested on: L. crispatus ATCC 33820, DSM 20584; experiment: Phenotypic growth assay (OD600); format: cell-based; details: SDM + 1% (w/v) carbohydrate (0.5% esculin), 37° C., 30 hours; corrected to medium without carbohydrate
Procedure: as §1

[6] = tested on: L. fermentum ATCC 14931; experiment: Phenotypic growth assay (OD600); format: cell-based; details: SDM + 1% (w/v) carbohydrate (0.5% esculin), 37° C., 30 hours; corrected to medium without carbohydrate
Procedure: as §1

[7] = tested on: L. gasseri ATCC 33323; experiment: Phenotypic growth assay (OD600); format: cell-based; details: SDM + 1% (w/v) carbohydrate (0.5% esculin), 37° C., 30 hours; corrected to medium without carbohydrate
Procedure: as §1

[8] = tested on: L. helveticus CNRZ32; experiment: Phenotypic growth assay (OD600); format: cell-based; details: SDM + 1% (w/v) carbohydrate (0.5% esculin), 37° C., 30 hours; corrected to medium without carbohydrate
Procedure: as §1

[9] = tested on: L. intestinalis Th4, ATCC 49335, DSM 6629; experiment: Phenotypic growth assay (OD600); format: cell-based; details: SDM + 1% (w/v) carbohydrate (0.5% esculin), 37° C., 30 hours; corrected to medium without carbohydrate
Procedure: as §1

[10] = tested on: L. jensenii ATCC 25258, 62G, DSM 20557; experiment: Phenotypic growth assay (OD600); format: cell-based; details: SDM + 1% (w/v) carbohydrate (0.5% esculin), 37° C., 30 hours; corrected to medium without carbohydrate
Procedure: as §1

[11] = tested on: L. johnsonii ATCC 33200; experiment: Phenotypic growth assay (OD600); format: cell-based; details: SDM + 1% (w/v) carbohydrate (0.5% esculin), 37° C., 30 hours; corrected to medium without carbohydrate
Procedure: as §1

[12] = tested on: L. plantarum sp. plantarum ATCC 14917, LA70; experiment: Phenotypic growth assay (OD600); format: cell-based; details: SDM + 1% (w/v) carbohydrate (0.5% esculin), 37° C., 30 hours; corrected to medium without carbohydrate
Procedure: as §1

[13] = tested on: L. reuteri (ATCC 23272, DSM 20016); experiment: Phenotypic growth assay (OD600); format: cell-based; details: SDM + 1% (w/v) carbohydrate (0.5% esculin), 37° C., 30 hours; corrected to medium without carbohydrate
Procedure: as §1

[14] = tested on: L. rhanmosus GG (ATCC 53103); experiment: Phenotypic growth assay (OD600); format: cell-based; details: SDM + 1% (w/v) carbohydrate (0.5% esculin), 37° C., 30 hours; corrected to medium without carbohydrate
Procedure: as §1

[15] = tested on: NCK2418 (ΔLBA0227); experiment: Phenotypic growth analysis of deletion mutant (PTS EIIC); format: cell-based, Lactobacillus acidophilus; details: compared with background Δupp strain
Procedure: as §1
Construction of gene deletion mutants. The L. acidophilus NCFM genes LBA0225 and LBA0726, both encoding P-Bgl of glycoside hydrolase family 1 (GH1) enzymes in addition to the LBA0227 and LBA0725 genes encoding an EIIC and an EIICBA components of two PTS systems, respectively, were deleted using the upp-based counterselectable gene replacement system. Briefly, in-frame deletions were constructed by amplifying 650-750 bp of the up- and downstream flanking regions of the deletion targets with two primer pairs (e.g., LBA0225A/LBA0225B and LBA0225C/LBA0225D; Table 4). The resulting purified products were joined by splicing using overlap extension PCR (SOE-PCR63) and amplified to establish the deletion alleles. The SOE-PCR products, that include flanking restriction enzyme sites, were cloned within the BamHI and SacI/EcoRI sites of the pTRK935 integration vector and transformed into E. coli EC101. The resulting recombinant plasmids (pTRK1113-6) were confirmed by DNA sequencing and electroporated into L. acidophilus NCK1910 (Table 2) that contains the pTRK669 helper plasmid, and the recovery of the single- and double-crossover recombinants was performed as previously described. Recombinants carrying the new gene deletion alleles were isolated by colony PCR using primer pairs denoted up/down (e.g., LBA0225up/LBA0225down), which anneal to the flanking regions of the amplicons. Sequence integrity and in-frame deletions were verified by DNA sequencing employing the aforementioned primer pairs and primer denoted mid (e.g., LBA0225mid). The mutations were in-frame deletions of 90-96% of the coding regions.
To establish the functional significance of these two loci, single deletions of each PTS EII and P-Bgl gene, and a double deletion of both P-Bgl genes were constructed using the upp-based counter-selectable gene replacement system (Table 2) and the growth phenotypes of the mutant strains were analyzed (FIG. 3). […]

## N#C[C@H](O[C@@H]1O[C@H](CO[C@@H]2O[C@H](CO)[C@@H](O)[C@H](O)[C@H]2O)[C@@H](O)[C@H](O)[C@H]1O)c1ccccc1 [Amygdalin]
[1]
  Growth (OD600 max class) of L. acidophilus NCFM: + (“+” signifies 0.3 > OD600 max > 0.1.)
[1]; growth concentration 1% (w/v)
  OD600 max: 0.3
[2]
  Growth (OD600 max class) of L. acidophilus LA-1: ++ (“++” signifies 0.6 > OD600 max > 0.3.)
[3]
  Growth (OD600 max class) of L. amyloverus ATCC 33620, DSM 20531: − (“−” signifies OD600 max < 0.1.)
[4]
  Growth (OD600 max class) of L. animalis DSM 20602: − (“−” signifies OD600 max < 0.1.)
[5]
  Growth (OD600 max class) of L. crispatus ATCC 33820, DSM 20584: − (“−” signifies OD600 max < 0.1.)
[6]
  Growth (OD600 max class) of L. fermentum ATCC 14931: − (“−” signifies OD600 max < 0.1.)
[7]
  Growth (OD600 max class) of L. gasseri ATCC 33323: − (“−” signifies OD600 max < 0.1.)
[8]
  Growth (OD600 max class) of L. helveticus CNRZ32: + (“+” signifies 0.3 > OD600 max > 0.1.)
[9]
  Growth (OD600 max class) of L. intestinalis Th4, ATCC 49335, DSM 6629: − (“−” signifies OD600 max < 0.1.)
[10]
  Growth (OD600 max class) of L. jensenii ATCC 25258, 62G, DSM 20557: + (“+” signifies 0.3 > OD600 max > 0.1.)
[11]
  Growth (OD600 max class) of L. johnsonii ATCC 33200: − (“−” signifies OD600 max < 0.1.)
[12]
  Growth (OD600 max class) of L. plantarum sp. plantarum ATCC 14917, LA70: +++ (“+++” signifies OD600 max > 0.6.)
[13]
  Growth (OD600 max class) of L. reuteri (ATCC 23272, DSM 20016): − (“−” signifies OD600 max < 0.1.)
[14]
  Growth (OD600 max class) of L. rhanmosus GG (ATCC 53103): +++ (“+++” signifies OD600 max > 0.6.)
[15]
  growth of the ΔLBA0227 mutant (inactive EIIC): abolished

## O=c1ccc2cc(O[C@@H]3O[C@H](CO)[C@@H](O)[C@H](O)[C@H]3O)c(O)cc2o1 [Esculin]
[1]
  Growth (OD600 max class) of L. acidophilus NCFM: ++ (“++” signifies 0.6 > OD600 max > 0.3.)
[1]; growth concentration 0.5% (w/v)
  OD600 max: 0.4
[2]
  Growth (OD600 max class) of L. acidophilus LA-1: +++ (“+++” signifies OD600 max > 0.6.)
[3]
  Growth (OD600 max class) of L. amyloverus ATCC 33620, DSM 20531: − (“−” signifies OD600 max < 0.1.)
[4]
  Growth (OD600 max class) of L. animalis DSM 20602: + (“+” signifies 0.3 > OD600 max > 0.1.)
[5]
  Growth (OD600 max class) of L. crispatus ATCC 33820, DSM 20584: ++ (“++” signifies 0.6 > OD600 max > 0.3.)
[6]
  Growth (OD600 max class) of L. fermentum ATCC 14931: − (“−” signifies OD600 max < 0.1.)
[7]
  Growth (OD600 max class) of L. gasseri ATCC 33323: ++ (“++” signifies 0.6 > OD600 max > 0.3.)
[8]
  Growth (OD600 max class) of L. helveticus CNRZ32: − (“−” signifies OD600 max < 0.1.)
[9]
  Growth (OD600 max class) of L. intestinalis Th4, ATCC 49335, DSM 6629: − (“−” signifies OD600 max < 0.1.)
[10]
  Growth (OD600 max class) of L. jensenii ATCC 25258, 62G, DSM 20557: ++ (“++” signifies 0.6 > OD600 max > 0.3.)
[11]
  Growth (OD600 max class) of L. johnsonii ATCC 33200: − (“−” signifies OD600 max < 0.1.)
[12]
  Growth (OD600 max class) of L. plantarum sp. plantarum ATCC 14917, LA70: ++ (“++” signifies 0.6 > OD600 max > 0.3.)
[13]
  Growth (OD600 max class) of L. reuteri (ATCC 23272, DSM 20016): − (“−” signifies OD600 max < 0.1.)
[14]
  Growth (OD600 max class) of L. rhanmosus GG (ATCC 53103): ++ (“++” signifies 0.6 > OD600 max > 0.3.)
[15]
  growth of the ΔLBA0227 mutant (inactive EIIC): invariant

## OCc1ccccc1O[C@@H]1O[C@H](CO)[C@@H](O)[C@H](O)[C@H]1O [Salicin]
[1]
  Growth (OD600 max class) of L. acidophilus NCFM: +++ (“+++” signifies OD600 max > 0.6.)
[1]; growth concentration 1% (w/v)
  OD600 max: 0.8
[2]
  Growth (OD600 max class) of L. acidophilus LA-1: +++ (“+++” signifies OD600 max > 0.6.)
[3]
  Growth (OD600 max class) of L. amyloverus ATCC 33620, DSM 20531: − (“−” signifies OD600 max < 0.1.)
[4]
  Growth (OD600 max class) of L. animalis DSM 20602: + (“+” signifies 0.3 > OD600 max > 0.1.)
[5]
  Growth (OD600 max class) of L. crispatus ATCC 33820, DSM 20584: +++ (“+++” signifies OD600 max > 0.6.)
[6]
  Growth (OD600 max class) of L. fermentum ATCC 14931: − (“−” signifies OD600 max < 0.1.)
[7]
  Growth (OD600 max class) of L. gasseri ATCC 33323: ++ (“++” signifies 0.6 > OD600 max > 0.3.)
[8]
  Growth (OD600 max class) of L. helveticus CNRZ32: − (“−” signifies OD600 max < 0.1.)
[9]
  Growth (OD600 max class) of L. intestinalis Th4, ATCC 49335, DSM 6629: − (“−” signifies OD600 max < 0.1.)
[10]
  Growth (OD600 max class) of L. jensenii ATCC 25258, 62G, DSM 20557: ++ (“++” signifies 0.6 > OD600 max > 0.3.)
[11]
  Growth (OD600 max class) of L. johnsonii ATCC 33200: + (“+” signifies 0.3 > OD600 max > 0.1.)
[12]
  Growth (OD600 max class) of L. plantarum sp. plantarum ATCC 14917, LA70: +++ (“+++” signifies OD600 max > 0.6.)
[13]
  Growth (OD600 max class) of L. reuteri (ATCC 23272, DSM 20016): − (“−” signifies OD600 max < 0.1.)
[14]
  Growth (OD600 max class) of L. rhanmosus GG (ATCC 53103): +++ (“+++” signifies OD600 max > 0.6.)
[15]
  growth of the ΔLBA0227 mutant (inactive EIIC): invariant
